PubChem BioAssay (NCI)
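GI50 marks 50% less growth. TGI marks complete inhibition of growth.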

Columns and labels:
Assay in all cases: NCI anticancer screen, dose series, 384-well format
OVCAR-4 ovarian = system: OVCAR-4 ovarian
OVCAR-3 ovarian = system: OVCAR-3 ovarian
HT29 colon = system: HT29 colon
SK-MEL-5 melanoma = system: SK-MEL-5 melanoma
MDA-MB-435 melanoma = system: MDA-MB-435 melanoma
IGROV1 ovarian = system: IGROV1 ovarian
LOX IMVI melanoma = system: LOX IMVI melanoma
NCI-H460 NSCLC = system: NCI-H460 NSCLC
UO-31 renal = system: UO-31 renal
HOP-92 NSCLC = system: HOP-92 NSCLC
HL-60(TB) leukemia = system: HL-60(TB) leukemia
MDA-MB-468 breast = system: MDA-MB-468 breast
MCF7 breast = system: MCF7 breast
HOP-62 NSCLC = system: HOP-62 NSCLC
SNB-75 CNS = system: SNB-75 CNS
SN12C renal = system: SN12C renal
SK-OV-3 ovarian = system: SK-OV-3 ovarian
COLO 205 colon = system: COLO 205 colon
EKVX NSCLC = system: EKVX NSCLC
SR leukemia = system: SR leukemia
MALME-3M melanoma = system: MALME-3M melanoma
SF-539 CNS = system: SF-539 CNS
CAKI-1 renal = system: CAKI-1 renal
NCI/ADR-RES ovarian = system: NCI/ADR-RES ovarian
T-47D breast = system: T-47D breast
HCT-15 colon = system: HCT-15 colon
DU-145 prostate = system: DU-145 prostate
786-0 renal = system: 786-0 renal
SF-268 CNS = system: SF-268 CNS
NCI-H226 lung = system: NCI-H226 lung
TK-10 renal = system: TK-10 renal
UACC-62 melanoma = system: UACC-62 melanoma
NCI-H23 lung = system: NCI-H23 lung
CCRF-CEM leukemia = system: CCRF-CEM leukemia
SF-295 CNS = system: SF-295 CNS
HCT-116 colon = system: HCT-116 colon
OVCAR-8 ovarian = system: OVCAR-8 ovarian
BT-549 breast = system: BT-549 breast
UACC-257 melanoma = system: UACC-257 melanoma
NCI-H522 lung = system: NCI-H522 lung
M14 melanoma = system: M14 melanoma
A549 NSCLC = system: A549 NSCLC
KM12 colon = system: KM12 colon
RPMI-8226 leukemia = system: RPMI-8226 leukemia
SK-MEL-28 melanoma = system: SK-MEL-28 melanoma
ACHN renal = system: ACHN renal
U251 glioblastoma = system: U251 glioblastoma
NCI-H322M lung = system: NCI-H322M lung
A498 renal = system: A498 renal
SW-620 colon = system: SW-620 colon
MOLT-4 leukemia = system: MOLT-4 leukemia
HS 578T breast = system: HS 578T breast
PC-3 prostate = system: PC-3 prostate
MDA-MB-231 breast = system: MDA-MB-231 breast
SNB-19 CNS = system: SNB-19 CNS
RXF 393 renal = system: RXF 393 renal
HCC-2998 colon = system: HCC-2998 colon
K-562 leukemia = system: K-562 leukemia
OVCAR-5 ovarian = system: OVCAR-5 ovarian
SK-MEL-2 melanoma = system: SK-MEL-2 melanoma

## COc1cc2ncnc(Nc3cccc(Cl)c3F)c2cc1OC(=O)N1CCN(C)C[C@H]1C
OVCAR-4 ovarian
  GI50: 18.5 µM
  TGI: 51.5 µM
OVCAR-3 ovarian
  GI50: 4.35 µM
  TGI: 24.3 µM
HT29 colon
  GI50: 14.4 µM
  TGI: 31.2 µM
SK-MEL-5 melanoma
  GI50: 11.5 µM
  TGI: 24.9 µM
MDA-MB-435 melanoma
  GI50: 22.6 µM
  TGI: 55.8 µM
IGROV1 ovarian
  GI50: 0.241 µM
  TGI: 11.9 µM
LOX IMVI melanoma
  GI50: 16.3 µM
  TGI: 30.5 µM
NCI-H460 NSCLC
  GI50: 19.9 µM
  TGI: 44.2 µM
UO-31 renal
  GI50: 6.94 µM
  TGI: 27.9 µM
HOP-92 NSCLC
  GI50: 13.4 µM
  TGI: 28.5 µM
HL-60(TB) leukemia
  GI50: 16.5 µM
  TGI: 30.2 µM
MDA-MB-468 breast
  GI50: 0.128 µM
  TGI: 0.446 µM
MCF7 breast
  GI50: 19.8 µM
  TGI: 87.4 µM
HOP-62 NSCLC
  GI50: 17.6 µM
  TGI: 42 µM
SNB-75 CNS
  GI50: 17.6 µM
  TGI: 47.1 µM
SN12C renal
  GI50: 2.69 µM
  TGI: 27.6 µM
SK-OV-3 ovarian
  GI50: 3.46 µM
  TGI: 22.7 µM
COLO 205 colon
  GI50: 22.4 µM
  TGI: 54 µM
EKVX NSCLC
  GI50: 0.304 µM
  TGI: 16.7 µM
SR leukemia
  GI50: 10.8 µM
  TGI: 23.6 µM
MALME-3M melanoma
  GI50: 15.1 µM
  TGI: 28.8 µM
SF-539 CNS
  GI50: 16.7 µM
  TGI: 32.5 µM
CAKI-1 renal
  GI50: 2.3 µM
  TGI: 20.4 µM
NCI/ADR-RES ovarian
  GI50: 18 µM
  TGI: 64.2 µM
T-47D breast
  GI50: 9.89 µM
  TGI: 40.9 µM
HCT-15 colon
  GI50: 13.9 µM
  TGI: 29.2 µM
DU-145 prostate
  GI50: 13.5 µM
  TGI: 58.2 µM
786-0 renal
  GI50: 14.4 µM
  TGI: 29 µM
SF-268 CNS
  GI50: 18.8 µM
  TGI: 54 µM
NCI-H226 lung
  GI50: 11.7 µM
  TGI: 33.8 µM
TK-10 renal
  GI50: 0.573 µM
  TGI: 21.3 µM
UACC-62 melanoma
  GI50: 14.2 µM
  TGI: 28.1 µM
NCI-H23 lung
  GI50: 16.4 µM
  TGI: 41.7 µM
CCRF-CEM leukemia
  GI50: 20.1 µM
  TGI: 49.2 µM
SF-295 CNS
  GI50: 16.3 µM
  TGI: 31.4 µM
HCT-116 colon
  GI50: 16.9 µM
  TGI: 32.8 µM
OVCAR-8 ovarian
  GI50: 15.3 µM
  TGI: 49.2 µM
BT-549 breast
  GI50: 20.3 µM
  TGI: 46.5 µM
UACC-257 melanoma
  GI50: 17.5 µM
  TGI: 31.5 µM
NCI-H522 lung
  GI50: 0.851 µM
  TGI: 17.5 µM
M14 melanoma
  GI50: 16.4 µM
  TGI: 30.7 µM
A549 NSCLC
  GI50: 12.3 µM
  TGI: 43.1 µM
KM12 colon
  GI50: 20.1 µM
  TGI: 41.4 µM
RPMI-8226 leukemia
  GI50: 14.6 µM
  TGI: 30.9 µM
SK-MEL-28 melanoma
  GI50: 14.6 µM
  TGI: 28 µM
ACHN renal
  GI50: 0.427 µM
  TGI: 20.7 µM
U251 glioblastoma
  GI50: 20.2 µM
  TGI: 48 µM
NCI-H322M lung
  GI50: 0.144 µM
  TGI: 10.8 µM
A498 renal
  GI50: 17 µM
  TGI: 42.5 µM
SW-620 colon
  GI50: 20.3 µM
  TGI: 38.2 µM
MOLT-4 leukemia
  GI50: 14.2 µM
  TGI: 28.1 µM
HS 578T breast
  GI50: 15.2 µM
  TGI: 29.6 µM
PC-3 prostate
  GI50: 15.6 µM
  TGI: 49.8 µM
MDA-MB-231 breast
  GI50: 14.7 µM
  TGI: 38.4 µM
SNB-19 CNS
  GI50: 27.7 µM
  TGI: > 100 µM
RXF 393 renal
  GI50: 14.1 µM
  TGI: 29.2 µM
HCC-2998 colon
  GI50: 17.3 µM
  TGI: 32.4 µM
K-562 leukemia
  GI50: 5.49 µM
  TGI: 17.8 µM

## C[C@@H](NC(=O)/C(C#N)=C/c1ccc([N+](=O)[O-])cc1)c1ccccc1
OVCAR-4 ovarian
  GI50: 1.73 µM
  TGI: 3.3 µM
OVCAR-3 ovarian
  GI50: 1.61 µM
  TGI: 3.12 µM
HT29 colon
  GI50: 1.82 µM
  TGI: 3.25 µM
SK-MEL-5 melanoma
  GI50: 2.09 µM
  TGI: 3.79 µM
MDA-MB-435 melanoma
  GI50: 3.26 µM
  TGI: 10.4 µM
LOX IMVI melanoma
  GI50: 1.93 µM
  TGI: 3.49 µM
NCI-H460 NSCLC
  GI50: 1.74 µM
  TGI: 3.24 µM
UO-31 renal
  GI50: 1.34 µM
  TGI: 2.66 µM
HOP-92 NSCLC
  GI50: 3.22 µM
  TGI: 12.1 µM
HL-60(TB) leukemia
  GI50: 1.78 µM
  TGI: 3.18 µM
HOP-62 NSCLC
  GI50: 2.4 µM
  TGI: 5.77 µM
SNB-75 CNS
  GI50: 1.76 µM
  TGI: 3.24 µM
SN12C renal
  GI50: 2.01 µM
  TGI: 4.19 µM
SK-OV-3 ovarian
  GI50: 2.19 µM
  TGI: 4.54 µM
COLO 205 colon
  GI50: 1.71 µM
  TGI: 3.11 µM
EKVX NSCLC
  GI50: 1.91 µM
  TGI: 3.55 µM
SR leukemia
  GI50: 1.28 µM
  TGI: 2.58 µM
MALME-3M melanoma
  GI50: 2.29 µM
  TGI: 4.6 µM
SF-539 CNS
  GI50: 2.18 µM
  TGI: 4.3 µM
CAKI-1 renal
  GI50: 1.72 µM
  TGI: 3.32 µM
NCI/ADR-RES ovarian
  GI50: 2.08 µM
  TGI: 4.65 µM
T-47D breast
  GI50: 2.75 µM
  TGI: 5.85 µM
HCT-15 colon
  GI50: 1.72 µM
  TGI: 3.24 µM
DU-145 prostate
  GI50: 3.2 µM
  TGI: 9.86 µM
786-0 renal
  GI50: 1.72 µM
  TGI: 3.21 µM
SF-268 CNS
  GI50: 2.23 µM
  TGI: 5.52 µM
NCI-H226 lung
  GI50: 2.04 µM
  TGI: 4.28 µM
OVCAR-5 ovarian
  GI50: 2.57 µM
  TGI: 6.52 µM
UACC-62 melanoma
  GI50: 1.82 µM
  TGI: 3.51 µM
NCI-H23 lung
  GI50: 1.83 µM
  TGI: 3.39 µM
CCRF-CEM leukemia
  GI50: 1.64 µM
  TGI: 3.02 µM
SF-295 CNS
  GI50: 1.94 µM
  TGI: 3.85 µM
HCT-116 colon
  GI50: 2.59 µM
  TGI: 5.95 µM
BT-549 breast
  GI50: 1.85 µM
  TGI: 3.42 µM
UACC-257 melanoma
  GI50: 3.39 µM
  TGI: 9.81 µM
NCI-H522 lung
  GI50: 0.271 µM
  TGI: 0.964 µM
M14 melanoma
  GI50: 2.37 µM
  TGI: 5.7 µM
A549 NSCLC
  GI50: 3.04 µM
  TGI: 8.55 µM
KM12 colon
  GI50: 1.9 µM
  TGI: 3.79 µM
RPMI-8226 leukemia
  GI50: 1.7 µM
  TGI: 3.09 µM
SK-MEL-28 melanoma
  GI50: 3.48 µM
  TGI: 9.82 µM
ACHN renal
  GI50: 1.79 µM
  TGI: 3.25 µM
U251 glioblastoma
  GI50: 1.74 µM
  TGI: 3.26 µM
NCI-H322M lung
  GI50: 1.98 µM
  TGI: 3.82 µM
A498 renal
  GI50: 1.91 µM
  TGI: 3.54 µM
SW-620 colon
  GI50: 1.88 µM
  TGI: 3.39 µM
SK-MEL-2 melanoma
  GI50: 2.02 µM
  TGI: 3.57 µM
MOLT-4 leukemia
  GI50: 1.5 µM
  TGI: 2.85 µM
HS 578T breast
  GI50: 1.85 µM
  TGI: 3.41 µM
PC-3 prostate
  GI50: 2 µM
  TGI: 3.93 µM
MDA-MB-231 breast
  GI50: 3.03 µM
  TGI: 7.47 µM
SNB-19 CNS
  GI50: 2.33 µM
  TGI: 5.78 µM
RXF 393 renal
  GI50: 1.72 µM
  TGI: 3.15 µM
HCC-2998 colon
  GI50: 1.14 µM
  TGI: 2.42 µM
K-562 leukemia
  GI50: 1.85 µM
  TGI: 4.04 µM
